Patent publication US10793521B2, “Crystalline form II of dextral oxiracetam, preparation method therefor and use thereof” (CHONGQING RUNZE PHARMACEUTICAL COMPANY LIMITED, priority 2016, dated 2020)
“Also recorded” adds a separate entry of the source.

Tests used:
Type in all cases: physicochemical
Solubility in water = assay: Solubility in water
[1] = Accelerated test for crystalline form stability; details: 40° C.±2° C., relative humidity 75%±5%
Description: The accelerated test for crystalline form stability was performed in accordance with the provisions relating to the accelerated test of active pharmaceutical ingredients under “Guidelines for the Stability Test of Active Ingredient Pharmaceutical Ingredients and Pharmaceutical Preparations” of Pharmacopoeia 2010 Appendix XIXC. The crystalline form II of dextral oxiracetam was placed in a beaker and the test was carried out in a constant temperature and humidity chamber at a temperature of 40° C.±2° C. and a relative humidity of 75%±5%.

[2] = Dynamic vapor sorption (DVS) test with powder X-ray diffraction characterization
Description: The test parameters were given as follows: weighing: Ultra Digital Microbalance SMS Ultra Balance™; flow rate: N2, 200 sccm, System Control Software: DVS-Intrinsic control software ver. 1.0.3.1, Data Analysis Software: Isotherm (ISO) analysis suite. 22.4 mg of sample of crystalline form II of dextral oxiracetam was weighed for the test, dried at RH=0%, the mass was balanced to ensure removal of moisture adsorbed on the surface, then placed on metal sample tray, and dried at 0% RH for 2 h. The test was performed at a constant temperature of 25° C., and the relative humidity (RH %) was controlled to vary cyclically from 0% to 90% to 0% RH with a 10% gradient. The variation of the sample weight with humidity was measured, which was combined with powder X-ray diffraction characterization to observe the effect of humidity on crystalline form transformation of the sample.

- solubility (Solubility in water): ≥ 100 mg/mL
- change in crystalline form ([1]; after 2 h): no change
- change in crystalline form ([1]; after 10 days): no change
- change in crystalline form ([1]; after 15 days): no change
- crystal transformation in accelerated stability test ([1]; between 2 h and 15 d): did not undergo crystal transformation
SMILES: NC(=O)CN1C[C@H](O)CC1=O [dextral oxiracetam]
- crystalline form of the sample after humidity cycle ([2]; 25° C., relative humidity cycled 0% to 90% to 0% RH with a 10% gradient): still the crystalline form II of dextral oxiracetam
- crystal transformation / stability to humidity ([2]; room temperature, relative humidity of 0-95%): do not undergo crystal transformation; also recorded: no crystal transformation occurs
